Experimental data published in ChEMBL document CHEMBL3632570, “Structure-Guided Design of Novel l-Cysteine Derivatives as Potent KSP Inhibitors” (ACS Med Chem Lett, 2015).
Activity calls are given as the source filed them. The rule behind the calls is not given here.

Legend:
[1] = molecular target: T1, Chromosome-associated kinesin KIF4A (Homo sapiens) (UniProt O95239); test: Inhibition of microtubule-stimulated KIF4A motor domain (1 to 346) (unknown origin) ATPase activity at 6.3 uM
T1 sequence (whole entry): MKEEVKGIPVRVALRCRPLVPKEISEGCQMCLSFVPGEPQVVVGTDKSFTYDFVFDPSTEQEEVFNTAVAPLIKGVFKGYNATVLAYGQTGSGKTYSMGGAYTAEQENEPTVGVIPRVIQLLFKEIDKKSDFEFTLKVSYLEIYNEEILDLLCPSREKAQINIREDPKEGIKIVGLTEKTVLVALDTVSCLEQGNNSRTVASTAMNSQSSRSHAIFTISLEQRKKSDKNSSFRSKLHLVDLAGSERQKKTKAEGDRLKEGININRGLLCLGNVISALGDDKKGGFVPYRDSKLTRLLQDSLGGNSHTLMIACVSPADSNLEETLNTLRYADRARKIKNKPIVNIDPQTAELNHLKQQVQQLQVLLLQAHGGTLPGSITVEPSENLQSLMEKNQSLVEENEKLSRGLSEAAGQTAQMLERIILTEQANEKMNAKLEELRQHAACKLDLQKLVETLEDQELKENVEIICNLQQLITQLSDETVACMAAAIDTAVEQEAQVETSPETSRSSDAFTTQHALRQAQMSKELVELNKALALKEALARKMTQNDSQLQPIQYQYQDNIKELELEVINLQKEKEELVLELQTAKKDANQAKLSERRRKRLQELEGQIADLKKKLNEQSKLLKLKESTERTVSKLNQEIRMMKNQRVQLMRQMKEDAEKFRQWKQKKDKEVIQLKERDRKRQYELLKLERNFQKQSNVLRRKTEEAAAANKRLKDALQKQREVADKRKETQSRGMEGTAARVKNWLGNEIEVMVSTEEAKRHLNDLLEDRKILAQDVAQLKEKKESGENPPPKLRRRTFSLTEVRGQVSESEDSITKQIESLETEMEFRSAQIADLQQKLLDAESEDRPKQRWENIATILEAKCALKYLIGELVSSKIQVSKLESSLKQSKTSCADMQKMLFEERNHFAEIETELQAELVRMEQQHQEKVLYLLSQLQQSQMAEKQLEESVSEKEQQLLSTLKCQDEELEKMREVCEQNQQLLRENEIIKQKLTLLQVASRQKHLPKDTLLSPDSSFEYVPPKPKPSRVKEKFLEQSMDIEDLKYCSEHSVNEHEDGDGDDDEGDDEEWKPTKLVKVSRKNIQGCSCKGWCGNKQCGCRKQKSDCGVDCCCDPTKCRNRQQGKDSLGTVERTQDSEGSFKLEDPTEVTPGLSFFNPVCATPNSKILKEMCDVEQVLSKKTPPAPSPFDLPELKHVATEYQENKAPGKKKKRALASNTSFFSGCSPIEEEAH

[2] = molecular target: T2, Kinesin-like protein KIF11 (Homo sapiens, UniProt P52732); test: Inhibition of His-tagged KSP motor domain (1 to 369) (unknown origin) assessed as inhibition of microtubule-stimulated KSP ATPase activity preincuabted for 30 mins followed by ATP addition measured after 15 mins by Kinase-Glo assay
T2 sequence (P52732 whole entry): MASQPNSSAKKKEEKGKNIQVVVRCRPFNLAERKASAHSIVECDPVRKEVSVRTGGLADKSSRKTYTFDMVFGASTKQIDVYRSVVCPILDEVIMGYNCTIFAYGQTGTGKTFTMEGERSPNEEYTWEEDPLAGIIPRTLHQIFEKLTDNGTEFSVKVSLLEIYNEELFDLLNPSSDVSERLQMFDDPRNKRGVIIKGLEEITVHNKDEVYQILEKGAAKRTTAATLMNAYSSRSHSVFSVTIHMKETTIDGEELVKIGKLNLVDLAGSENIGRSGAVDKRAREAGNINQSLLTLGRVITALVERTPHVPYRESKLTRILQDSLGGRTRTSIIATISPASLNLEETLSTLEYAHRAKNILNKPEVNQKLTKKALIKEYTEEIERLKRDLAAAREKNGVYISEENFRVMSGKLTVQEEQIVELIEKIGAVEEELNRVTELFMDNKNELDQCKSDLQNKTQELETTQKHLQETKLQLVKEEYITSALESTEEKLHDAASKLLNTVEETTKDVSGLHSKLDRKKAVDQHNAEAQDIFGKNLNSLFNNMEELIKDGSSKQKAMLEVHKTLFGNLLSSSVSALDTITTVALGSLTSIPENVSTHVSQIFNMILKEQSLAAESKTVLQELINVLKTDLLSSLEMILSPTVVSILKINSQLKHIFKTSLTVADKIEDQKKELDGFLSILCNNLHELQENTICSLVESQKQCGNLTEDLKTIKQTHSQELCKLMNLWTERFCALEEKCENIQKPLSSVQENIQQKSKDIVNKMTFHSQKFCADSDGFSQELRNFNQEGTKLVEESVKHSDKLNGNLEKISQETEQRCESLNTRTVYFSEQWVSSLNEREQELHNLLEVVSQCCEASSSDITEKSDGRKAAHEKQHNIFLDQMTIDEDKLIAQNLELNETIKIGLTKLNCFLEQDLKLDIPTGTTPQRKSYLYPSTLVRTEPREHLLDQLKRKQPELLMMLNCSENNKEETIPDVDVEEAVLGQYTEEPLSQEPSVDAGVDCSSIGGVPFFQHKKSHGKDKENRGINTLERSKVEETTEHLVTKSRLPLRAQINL

Mus musculus = test: Toxicity in athymic nude BALB/cAJcL mouse xenografted with HCT116 cells assessed as mortality at 25 mg/kg, iv administered on days 1,3,5,8,10 and 12; type: organism-based, HCT-116; settings: in vivo

Row | Compound | inhibition [1] | IC50 [2] [nM] | Activity (Mus musculus)
1 | N[C@@H](CSC1(c2ccc(C(F)(F)F)cc2)c2ccccc2CCc2ccccc21)C(=O)O | inactive | 21 | Non-toxic
2 | COc1ccc(C2(SC[C@H](N)C(=O)O)c3ccccc3CCc3ccccc32)cc1 | inactive | 14 | Non-toxic
